Data published in publication PMC6746850, “Identification and Molecular Characterization of Superoxide Dismutases Isolated From A Scuticociliate Parasite: Physiological Role in Oxidative Stress” (Scientific Reports, 2019).

Tests used:
Pd-Fe-SOD (FSD) = target: T1, Pd-Fe-SOD (FSD) (Philasterides dicentrarchi, UniProt A0A481XSU7); assay: SOD activity staining (NBT) in native PAGE; format: biochemical; conditions: 100 μM inhibitor; anion-exchange fraction P2 (methods also describe 30 min treatment of live ciliates before lysis)
T1 construct: native enzyme, 60-65 kDa activity band in anion-exchange fraction P2 on native PAGE; homodimer
T1 sequence (A0A481XSU7 22-249): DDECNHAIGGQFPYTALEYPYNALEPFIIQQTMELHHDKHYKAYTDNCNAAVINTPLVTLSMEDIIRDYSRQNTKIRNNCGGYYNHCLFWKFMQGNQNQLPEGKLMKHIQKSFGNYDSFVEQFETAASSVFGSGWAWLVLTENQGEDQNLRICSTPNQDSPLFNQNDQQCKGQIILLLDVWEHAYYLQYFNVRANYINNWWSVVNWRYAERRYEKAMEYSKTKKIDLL

Pd-Mn-SOD (MSD) = target: T2, Pd-Mn-SOD (MSD) (Philasterides dicentrarchi, UniProt A0A410JA19); assay: SOD activity staining (NBT) in native PAGE; format: biochemical; conditions: 100 μM inhibitor; anion-exchange fraction P2 (methods also describe 30 min treatment of live ciliates before lysis)
T2 construct: native enzyme, about 50 kDa activity band in anion-exchange fraction P2 on native PAGE; homodimer
T2 sequence (A0A410JA19 13-220): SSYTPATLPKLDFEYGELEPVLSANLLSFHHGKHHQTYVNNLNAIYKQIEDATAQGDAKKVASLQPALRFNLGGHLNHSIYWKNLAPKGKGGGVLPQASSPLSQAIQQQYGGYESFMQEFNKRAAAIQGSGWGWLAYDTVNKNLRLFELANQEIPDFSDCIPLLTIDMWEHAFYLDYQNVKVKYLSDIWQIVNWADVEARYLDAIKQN

SMILES: Oc1ccc(/C=C/c2cc(O)cc(O)c2)cc1 [trans-resveratrol]
- complete inhibition at 100 μM (Pd-Fe-SOD (FSD)): completely inhibited the activity of the Pd-Fe-SOD isoenzyme
- partial inhibition at 100 μM (Pd-Mn-SOD (MSD)): RESV partly inhibited the activity of the Pd-Mn-SOD isoenzyme
